Results: ChEMBL document CHEMBL3988442, “University of Dundee, Small-Polar-MMV Screening Library” (2021)
Several values for one entry are separate records, joined by “and”; a condition that tells them apart may be missing. Equal values may be shown once.

Tests used:
[1] = target: T1, Ubiquitin-activating enzyme e1, putative (Leishmania donovani (strain BPK282A1), UniProt E9BSI1); test: Leishmania donovani Ubiquitin Activating Enzyme (LdE1); assay type: functional
T1 sequence (E9BSI1 whole entry): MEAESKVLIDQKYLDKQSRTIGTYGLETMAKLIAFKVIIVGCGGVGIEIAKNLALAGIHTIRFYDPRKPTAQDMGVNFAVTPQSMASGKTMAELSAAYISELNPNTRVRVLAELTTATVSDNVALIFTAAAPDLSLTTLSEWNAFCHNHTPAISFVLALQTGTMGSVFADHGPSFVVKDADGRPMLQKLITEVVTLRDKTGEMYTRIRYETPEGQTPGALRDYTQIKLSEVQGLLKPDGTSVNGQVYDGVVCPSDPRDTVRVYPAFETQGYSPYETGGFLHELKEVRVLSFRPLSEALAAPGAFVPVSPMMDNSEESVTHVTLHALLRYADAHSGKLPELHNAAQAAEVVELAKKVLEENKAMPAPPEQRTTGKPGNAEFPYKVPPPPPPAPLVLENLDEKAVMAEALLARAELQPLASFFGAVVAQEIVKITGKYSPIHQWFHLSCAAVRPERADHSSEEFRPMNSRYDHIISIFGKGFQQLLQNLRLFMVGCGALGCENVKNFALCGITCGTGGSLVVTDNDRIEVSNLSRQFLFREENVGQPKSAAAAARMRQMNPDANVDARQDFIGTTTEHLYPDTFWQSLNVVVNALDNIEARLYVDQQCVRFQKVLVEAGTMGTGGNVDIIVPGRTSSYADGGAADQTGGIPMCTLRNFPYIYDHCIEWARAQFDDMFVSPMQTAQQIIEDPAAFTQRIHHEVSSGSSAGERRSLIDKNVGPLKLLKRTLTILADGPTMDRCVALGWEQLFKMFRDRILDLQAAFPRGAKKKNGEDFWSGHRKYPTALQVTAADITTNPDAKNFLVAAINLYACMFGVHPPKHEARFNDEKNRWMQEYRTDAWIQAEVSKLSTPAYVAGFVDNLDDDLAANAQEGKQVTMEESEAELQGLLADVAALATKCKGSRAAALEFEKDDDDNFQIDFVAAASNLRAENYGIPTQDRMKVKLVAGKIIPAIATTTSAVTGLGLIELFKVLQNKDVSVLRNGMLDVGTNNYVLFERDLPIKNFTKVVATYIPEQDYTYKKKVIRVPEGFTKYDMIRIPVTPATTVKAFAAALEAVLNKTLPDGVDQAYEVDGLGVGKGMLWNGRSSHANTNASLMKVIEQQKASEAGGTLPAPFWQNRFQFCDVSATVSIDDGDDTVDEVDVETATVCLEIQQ

[2] = target: T2, Aspartate--tRNA(Asp/Asn) ligase (Mycobacterium tuberculosis (strain ATCC 25618 / H37Rv), UniProt P9WFW3); test: Assay for Asp RNA synthetase-1 from Mycobacterium tuberculosis; assay type: functional
T2 sequence (P9WFW3 whole entry): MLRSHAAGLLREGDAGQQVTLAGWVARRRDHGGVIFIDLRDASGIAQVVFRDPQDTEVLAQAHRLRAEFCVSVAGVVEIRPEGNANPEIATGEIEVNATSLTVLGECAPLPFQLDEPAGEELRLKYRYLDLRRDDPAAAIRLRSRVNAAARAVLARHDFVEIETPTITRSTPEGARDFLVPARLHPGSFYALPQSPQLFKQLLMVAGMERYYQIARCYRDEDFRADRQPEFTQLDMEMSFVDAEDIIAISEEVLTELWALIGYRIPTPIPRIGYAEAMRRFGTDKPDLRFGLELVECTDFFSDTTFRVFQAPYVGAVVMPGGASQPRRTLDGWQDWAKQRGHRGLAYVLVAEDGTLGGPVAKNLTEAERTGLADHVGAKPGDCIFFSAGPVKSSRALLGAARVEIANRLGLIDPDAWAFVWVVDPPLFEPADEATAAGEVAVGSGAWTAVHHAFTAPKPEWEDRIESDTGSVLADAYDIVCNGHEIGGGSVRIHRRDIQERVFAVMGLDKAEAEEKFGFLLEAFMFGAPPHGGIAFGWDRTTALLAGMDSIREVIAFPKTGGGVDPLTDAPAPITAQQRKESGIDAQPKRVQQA

Histidine--tRNA ligase [3] = target: T3, Histidine--tRNA ligase (Leishmania infantum, UniProt A4I591); test: Leishmania infantum Histidine tRNA synthetase (LdHisRS); assay type: functional
T3 sequence (A4I591 whole entry): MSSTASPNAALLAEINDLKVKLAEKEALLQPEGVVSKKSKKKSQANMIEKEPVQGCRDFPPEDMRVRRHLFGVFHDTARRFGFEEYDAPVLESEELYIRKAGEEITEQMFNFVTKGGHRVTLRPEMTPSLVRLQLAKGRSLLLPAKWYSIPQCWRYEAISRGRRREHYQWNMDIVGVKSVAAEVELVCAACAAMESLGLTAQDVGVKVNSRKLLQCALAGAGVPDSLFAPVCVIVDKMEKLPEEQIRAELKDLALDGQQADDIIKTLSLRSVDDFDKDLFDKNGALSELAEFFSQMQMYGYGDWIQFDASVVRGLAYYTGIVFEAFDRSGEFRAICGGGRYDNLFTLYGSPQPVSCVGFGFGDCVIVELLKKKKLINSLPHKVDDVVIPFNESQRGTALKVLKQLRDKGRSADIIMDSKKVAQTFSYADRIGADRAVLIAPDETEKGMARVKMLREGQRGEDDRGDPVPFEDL

[4] = target: Polyketide synthase Pks13 (Mycobacterium tuberculosis (strain ATCC 25618 / H37Rv), UniProt I6X8D2); test: Mycobacterium tuberculosis Polyketide synthase 13 Thioesterase (PKS13); assay type: functional
Sequence of Polyketide synthase Pks13 (I6X8D2 whole entry): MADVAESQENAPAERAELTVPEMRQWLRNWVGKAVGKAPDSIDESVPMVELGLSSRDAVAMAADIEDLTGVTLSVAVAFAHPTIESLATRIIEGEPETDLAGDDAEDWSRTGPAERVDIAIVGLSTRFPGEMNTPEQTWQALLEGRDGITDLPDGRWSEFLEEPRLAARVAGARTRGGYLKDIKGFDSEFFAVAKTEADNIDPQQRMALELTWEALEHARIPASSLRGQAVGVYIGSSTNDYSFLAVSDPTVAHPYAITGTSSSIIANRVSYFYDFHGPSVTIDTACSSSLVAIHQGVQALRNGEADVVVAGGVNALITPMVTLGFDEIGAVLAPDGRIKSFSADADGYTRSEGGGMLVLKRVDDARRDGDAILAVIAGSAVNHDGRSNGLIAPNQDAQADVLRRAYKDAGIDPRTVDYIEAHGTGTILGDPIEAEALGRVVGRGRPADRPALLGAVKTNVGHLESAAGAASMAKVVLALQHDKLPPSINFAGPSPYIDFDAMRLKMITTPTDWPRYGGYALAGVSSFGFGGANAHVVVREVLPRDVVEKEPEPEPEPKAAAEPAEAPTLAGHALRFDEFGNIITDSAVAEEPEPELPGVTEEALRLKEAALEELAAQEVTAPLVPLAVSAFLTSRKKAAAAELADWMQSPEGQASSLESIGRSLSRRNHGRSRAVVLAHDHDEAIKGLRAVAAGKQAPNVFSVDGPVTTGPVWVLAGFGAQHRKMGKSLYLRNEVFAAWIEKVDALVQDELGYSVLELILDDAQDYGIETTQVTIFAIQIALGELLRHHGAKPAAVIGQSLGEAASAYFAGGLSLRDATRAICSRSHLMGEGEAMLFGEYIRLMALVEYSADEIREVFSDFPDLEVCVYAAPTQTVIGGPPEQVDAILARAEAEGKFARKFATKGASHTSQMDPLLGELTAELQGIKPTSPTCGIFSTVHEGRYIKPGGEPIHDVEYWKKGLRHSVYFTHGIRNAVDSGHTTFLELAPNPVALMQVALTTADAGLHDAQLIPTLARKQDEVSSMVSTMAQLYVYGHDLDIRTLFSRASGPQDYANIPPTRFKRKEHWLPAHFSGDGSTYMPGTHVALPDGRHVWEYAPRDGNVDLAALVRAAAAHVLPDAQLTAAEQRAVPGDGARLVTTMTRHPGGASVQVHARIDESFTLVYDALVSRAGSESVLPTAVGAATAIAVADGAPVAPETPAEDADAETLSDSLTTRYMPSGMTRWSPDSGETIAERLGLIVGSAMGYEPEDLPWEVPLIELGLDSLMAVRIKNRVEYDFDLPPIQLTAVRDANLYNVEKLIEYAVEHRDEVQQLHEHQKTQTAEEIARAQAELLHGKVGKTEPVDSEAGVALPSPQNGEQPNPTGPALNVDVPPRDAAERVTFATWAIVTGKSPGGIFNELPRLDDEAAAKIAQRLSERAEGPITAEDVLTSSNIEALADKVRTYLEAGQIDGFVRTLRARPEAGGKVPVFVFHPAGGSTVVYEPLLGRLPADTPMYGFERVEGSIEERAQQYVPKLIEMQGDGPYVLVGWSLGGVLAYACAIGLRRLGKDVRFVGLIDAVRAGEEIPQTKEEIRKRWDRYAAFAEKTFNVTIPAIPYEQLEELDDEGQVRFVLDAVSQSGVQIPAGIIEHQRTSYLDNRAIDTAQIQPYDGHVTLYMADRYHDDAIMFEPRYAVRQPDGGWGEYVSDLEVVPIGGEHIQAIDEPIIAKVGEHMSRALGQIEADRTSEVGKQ

[5] = target: T4, Tyrosyl-tRNA synthetase, putative (Trypanosoma cruzi (strain CL Brener), UniProt Q4DSP6); test: Trypanosoma cruzi tyrosyl tRNA synthetase (TcYRS) _High Tyrosine SOP; assay type: functional
T4 sequence (Q4DSP6 whole entry): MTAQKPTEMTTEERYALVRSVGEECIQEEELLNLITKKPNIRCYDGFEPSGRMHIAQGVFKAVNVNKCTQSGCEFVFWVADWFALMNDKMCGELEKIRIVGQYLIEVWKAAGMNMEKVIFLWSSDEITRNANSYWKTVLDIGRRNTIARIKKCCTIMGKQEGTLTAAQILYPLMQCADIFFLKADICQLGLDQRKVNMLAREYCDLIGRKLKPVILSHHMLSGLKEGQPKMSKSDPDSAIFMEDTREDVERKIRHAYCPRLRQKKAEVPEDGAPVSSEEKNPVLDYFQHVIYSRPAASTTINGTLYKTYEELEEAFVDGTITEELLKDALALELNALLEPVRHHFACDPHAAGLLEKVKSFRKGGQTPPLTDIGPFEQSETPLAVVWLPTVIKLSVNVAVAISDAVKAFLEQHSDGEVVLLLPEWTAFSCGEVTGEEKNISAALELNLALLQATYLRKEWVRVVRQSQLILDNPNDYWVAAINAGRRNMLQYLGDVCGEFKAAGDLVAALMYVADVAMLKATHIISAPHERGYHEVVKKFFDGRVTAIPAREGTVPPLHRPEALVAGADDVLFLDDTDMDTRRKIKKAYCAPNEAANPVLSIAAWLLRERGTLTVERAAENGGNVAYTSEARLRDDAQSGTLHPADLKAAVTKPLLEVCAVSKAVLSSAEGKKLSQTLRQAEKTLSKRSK

[6] = target: T4, Tyrosyl-tRNA synthetase, putative; test: Trypanosoma cruzi tyrosyl tRNA synthetase (TcYRS) SOP; assay type: functional
[7] = target: Chromo domain-containing protein 1 (Saccharomyces cerevisiae (strain ATCC 204508 / S288c) (Baker's yeast), UniProt P32657); test: ScCHD-1 Enzyme Inhibition Assay; assay type: functional
Sequence of Chromo domain-containing protein 1 (P32657 whole entry, the tested form may be a part): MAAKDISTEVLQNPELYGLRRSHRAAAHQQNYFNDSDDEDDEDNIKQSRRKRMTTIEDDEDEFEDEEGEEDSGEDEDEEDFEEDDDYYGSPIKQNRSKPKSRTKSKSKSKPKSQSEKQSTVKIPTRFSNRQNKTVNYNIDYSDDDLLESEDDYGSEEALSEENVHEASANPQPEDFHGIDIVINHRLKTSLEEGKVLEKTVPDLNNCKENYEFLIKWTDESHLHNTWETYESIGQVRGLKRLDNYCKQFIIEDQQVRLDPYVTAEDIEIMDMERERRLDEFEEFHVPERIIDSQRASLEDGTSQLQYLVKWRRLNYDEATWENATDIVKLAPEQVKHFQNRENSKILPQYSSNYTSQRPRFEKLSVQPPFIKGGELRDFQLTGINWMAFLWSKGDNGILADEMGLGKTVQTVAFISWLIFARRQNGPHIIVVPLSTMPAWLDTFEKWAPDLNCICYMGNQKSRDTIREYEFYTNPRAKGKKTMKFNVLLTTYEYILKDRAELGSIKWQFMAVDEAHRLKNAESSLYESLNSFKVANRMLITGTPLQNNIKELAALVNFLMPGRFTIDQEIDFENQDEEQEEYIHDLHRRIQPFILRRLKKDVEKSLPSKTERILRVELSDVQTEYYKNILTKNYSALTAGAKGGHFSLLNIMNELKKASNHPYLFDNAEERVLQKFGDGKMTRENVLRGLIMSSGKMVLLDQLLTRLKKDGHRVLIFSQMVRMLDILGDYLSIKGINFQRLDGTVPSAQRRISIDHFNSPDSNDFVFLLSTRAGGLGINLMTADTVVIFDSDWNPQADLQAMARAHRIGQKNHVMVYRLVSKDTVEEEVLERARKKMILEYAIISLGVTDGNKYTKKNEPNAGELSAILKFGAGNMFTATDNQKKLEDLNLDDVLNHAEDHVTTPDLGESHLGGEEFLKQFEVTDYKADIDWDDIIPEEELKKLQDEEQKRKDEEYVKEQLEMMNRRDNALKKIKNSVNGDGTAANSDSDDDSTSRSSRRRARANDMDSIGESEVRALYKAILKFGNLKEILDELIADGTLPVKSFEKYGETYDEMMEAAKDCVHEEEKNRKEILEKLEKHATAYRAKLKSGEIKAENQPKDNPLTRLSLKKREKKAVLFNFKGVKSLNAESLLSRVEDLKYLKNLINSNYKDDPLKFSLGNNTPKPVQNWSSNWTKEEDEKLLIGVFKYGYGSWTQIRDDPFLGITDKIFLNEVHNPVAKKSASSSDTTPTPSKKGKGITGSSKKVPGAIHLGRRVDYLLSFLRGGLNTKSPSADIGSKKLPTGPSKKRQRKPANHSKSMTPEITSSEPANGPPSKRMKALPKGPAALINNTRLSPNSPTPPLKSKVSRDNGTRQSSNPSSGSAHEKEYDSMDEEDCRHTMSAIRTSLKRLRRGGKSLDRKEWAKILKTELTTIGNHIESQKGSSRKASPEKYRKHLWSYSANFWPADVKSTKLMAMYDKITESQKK

Leishmania donovani = test: Leishmania intramacrophage assay; assay type: functional, organism-based; details: Leishmania donovani
Histidine--tRNA ligase [8] = target: T5, Histidine--tRNA ligase (Trypanosoma cruzi (strain CL Brener), UniProt Q4DA54); test: Trypanosoma cruzi histidyl tRNA synthetase (Tc-HisRS); assay type: functional
T5 sequence (Q4DA54 whole entry): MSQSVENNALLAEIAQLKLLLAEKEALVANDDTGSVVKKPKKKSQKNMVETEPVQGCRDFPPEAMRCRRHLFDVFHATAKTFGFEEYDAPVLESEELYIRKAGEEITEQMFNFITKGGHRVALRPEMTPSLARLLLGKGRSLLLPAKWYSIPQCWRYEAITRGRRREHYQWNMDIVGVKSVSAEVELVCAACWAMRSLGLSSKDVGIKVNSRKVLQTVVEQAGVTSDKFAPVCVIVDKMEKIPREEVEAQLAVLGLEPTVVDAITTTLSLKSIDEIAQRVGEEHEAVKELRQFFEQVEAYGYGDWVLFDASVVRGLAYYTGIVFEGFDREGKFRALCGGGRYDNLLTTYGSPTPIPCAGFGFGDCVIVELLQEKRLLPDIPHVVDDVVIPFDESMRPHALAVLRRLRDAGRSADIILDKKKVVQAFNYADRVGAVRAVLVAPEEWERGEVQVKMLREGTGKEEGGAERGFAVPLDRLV

Plasmodium falciparum = test: Calibr Malaria Delayed Death Assay SOP; assay type: functional, organism-based
Lysine--tRNA ligase = Lysine--tRNA ligase (Plasmodium falciparum (isolate 3D7), UniProt Q8IDJ8); test: Pf-KRS-1 (Lysyl-RNA Synthetase-1, KRS-1, cytosolic KRS) from Plasmodium falciparum. Inhibitor assay, 384 well plate, luminescence read.; assay type: functional
Sequence of Lysine--tRNA ligase (Q8IDJ8 whole entry): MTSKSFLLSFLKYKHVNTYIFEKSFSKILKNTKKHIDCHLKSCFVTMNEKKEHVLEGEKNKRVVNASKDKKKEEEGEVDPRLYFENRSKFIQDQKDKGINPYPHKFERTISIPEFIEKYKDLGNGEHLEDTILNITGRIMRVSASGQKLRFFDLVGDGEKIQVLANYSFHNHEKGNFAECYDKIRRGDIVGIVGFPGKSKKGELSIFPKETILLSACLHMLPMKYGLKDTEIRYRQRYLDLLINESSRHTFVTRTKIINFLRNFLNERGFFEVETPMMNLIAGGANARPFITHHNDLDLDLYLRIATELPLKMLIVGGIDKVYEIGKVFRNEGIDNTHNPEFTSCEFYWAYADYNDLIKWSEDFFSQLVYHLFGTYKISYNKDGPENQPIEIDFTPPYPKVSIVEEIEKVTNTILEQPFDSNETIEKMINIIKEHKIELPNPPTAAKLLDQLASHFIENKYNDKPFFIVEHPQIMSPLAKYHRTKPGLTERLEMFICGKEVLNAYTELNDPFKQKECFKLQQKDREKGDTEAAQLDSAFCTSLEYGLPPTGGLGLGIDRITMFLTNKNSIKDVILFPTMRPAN

Tryptophan--tRNA ligase = Tryptophan--tRNA ligase (Mycobacterium tuberculosis (strain ATCC 25618 / H37Rv), UniProt P9WFT3); test: Biochemical assay for Mt-TrpRS; assay type: functional
Sequence of Tryptophan--tRNA ligase (P9WFT3 whole entry): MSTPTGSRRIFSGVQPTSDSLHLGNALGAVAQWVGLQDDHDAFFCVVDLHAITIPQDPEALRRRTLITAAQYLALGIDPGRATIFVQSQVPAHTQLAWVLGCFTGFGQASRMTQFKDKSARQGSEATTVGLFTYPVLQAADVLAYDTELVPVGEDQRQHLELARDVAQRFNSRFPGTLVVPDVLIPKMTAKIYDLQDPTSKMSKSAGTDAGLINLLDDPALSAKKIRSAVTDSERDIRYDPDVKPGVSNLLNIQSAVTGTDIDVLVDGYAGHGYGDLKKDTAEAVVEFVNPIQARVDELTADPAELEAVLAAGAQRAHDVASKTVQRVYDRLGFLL

Schistosoma mansoni = test: High throughput screening of compounds against Schistosoma mansoni motility; assay type: functional; set-up: dose or concentration left out as unconfirmed

Structure (SMILES) | IC50 [2] | IC50 (Histidine--tRNA ligase [3]) | IC50 [5] | IC50 [6] | other results
Cn1nc2c(cc1=O)CN(Cc1coc(-c3cccs3)n1)CC2 | 51.7 µM and 65.4 µM | 13.1 µM and 11.1 µM |  |  | IC50 [1]: > 100 µM
COCCN1C[C@@H]2CN(c3ncccn3)C[C@@H]2C1=O |  |  | > 100 µM | > 100 µM | IC50 [4]: > 100 µM; IC50 [7]: > 29.5 µM
O=C(NC1CC1)c1ccc2ccc(N3CCN(CC4CC4)CC3)n2c1 |  |  | 41.1 µM and > 100 µM | > 100 µM | IC50 (Leishmania donovani): > 50.1 µM
O=C(O)C(F)(F)F.c1cnc(N2CCC3(CC2)CN(CC2CC2)c2ccccc23)nc1 |  | 9.51 µM and 9.98 µM | 19.4 µM and 17.9 µM | 16.3 µM and 16.2 µM | IC50 (Histidine--tRNA ligase [8]): 32.3 µM and 19.9 µM; pIC50 (Plasmodium falciparum): 6.09; IC50 (Plasmodium falciparum; Plasmodium falciparum): 1.26 µM
CC(=O)N1CCN(c2ccc3ccc(C(=O)NC4CCCC4)cn23)CC1 |  |  | 41.1 µM and > 100 µM | > 100 µM | 
O=C(C1=CCCC1)N1C[C@H](Oc2cccnc2)[C@H]2OCCC[C@H]21 |  |  | > 100 µM | > 100 µM | 
Cc1cc(CN2CCc3nn(C)c(=O)cc3C2)on1 | > 100 µM | 35.6 µM and 40.1 µM |  |  | IC50 (Lysine--tRNA ligase): > 50.1 µM; IC50 (Tryptophan--tRNA ligase): > 195 µM; Percent Effect (Schistosoma mansoni): -21.81%
Cn1nc2c(cc1=O)CN(CC(=O)Nc1ccc(Cl)cn1)CC2 | 90 µM and > 100 µM | 19 µM and 22.2 µM |  |  | Percent Effect (Schistosoma mansoni): -19.3%
COCCN(C)C(=O)Cn1cccc(OC)c1=O | > 100 µM | > 100 µM |  |  | 
Cc1cccnc1NC(=O)NCc1ccc(N2CCNC(=O)C2)cc1 |  | 19.7 µM and 15 µM | 52 µM and 31.6 µM | 53.1 µM and 32.9 µM | 
CCn1nc2c(cc1=O)CN(Cc1nc(-c3ccccn3)no1)CC2 | > 100 µM | 40 µM and 50.3 µM |  |  | IC50 (Lysine--tRNA ligase): > 50.1 µM
NC[C@H]1CC[C@H](C(NC(=O)c2cccc(F)c2)c2ccccn2)CC1 (some centres not stated) |  | 51 µM and 44.2 µM | > 100 µM and 87.7 µM | 76 µM and > 100 µM | 
CN(CC1CC1)c1ccc2ccc(C(=O)NCCN3CCOCC3)cn12 |  |  | 94.4 µM and > 100 µM | > 100 µM | IC50 (Leishmania donovani): > 50.1 µM
